Molecular target: T1, Bcl-2-related protein A1 (Mus musculus, UniProt Q07440)
T1 sequence (Q07440 whole entry): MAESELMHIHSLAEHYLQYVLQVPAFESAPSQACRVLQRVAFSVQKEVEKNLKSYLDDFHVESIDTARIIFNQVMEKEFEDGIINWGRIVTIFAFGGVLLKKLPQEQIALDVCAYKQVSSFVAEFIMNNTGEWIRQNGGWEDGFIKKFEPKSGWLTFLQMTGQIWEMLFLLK
Test: Bfl-1 binding inhibitors, SAR follow-up, biochemical, fluorescence polarization (AID 1070)

Structure (SMILES) | IC50 [µM]
COCC=Nc1c(Cl)c(O)n(-c2ccc(Cl)c(Cl)c2)c1O [3-chloranyl-1-(3,4-dichlorophenyl)-4-(2-methoxyethylamino)pyrrole-2,5-dione] | 12.6
Cc1ccc(N=C2C(=O)N(c3ccc(C)cc3)C(=O)C2Cl)cc1 (configuration not stated) [3-chloranyl-1-(4-methylphenyl)-4-[(4-methylphenyl)amino]pyrrole-2,5-dione] | 1.7

Source: BindingDB's records for doi:10.7270/Q2X065GM (Sanford-Burnham Center for Chemical Genomics, 2008)
